Results published in the supplement of paper PMC6045584.
± gives the standard deviation of the averaged measurements.

Columns and labels:
DASATINIB = compound: Cc1nc(Nc2ncc(C(=O)Nc3c(C)cccc3Cl)s2)cc(N2CCN(CCO)CC2)n1 [DASATINIB]; test: surviving fraction relative to DMSO-only wells; higher = less growth inhibition; conditions: exposure time: 5 days
Outline: (§1)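 Surviving fraction was calculated by normalising CellTiter-Glo luminescence to the median of DMSO-only wells. Tumour cell lines in log phase were seeded in 384-well plates at 250–500 cells per well, and 24 hours later were exposed continuously for five days to inhibitors at 0.5, 1, 5, 10, 50, 100, 500 and 1000 nM.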

ABIRATERONE = compound: C[C@]12CC[C@H](O)CC1=CC[C@@H]1[C@@H]2CC[C@]2(C)C(c3cccnc3)=CC[C@@H]12 [ABIRATERONE]; test: as above; conditions: exposure time: 5 days
Outline: as §1

Row | Test System | surviving fraction (DASATINIB; 0.5 nM) | surviving fraction (DASATINIB; 1 nM) | surviving fraction (DASATINIB; 5 nM) | surviving fraction (DASATINIB; 10 nM) | surviving fraction (DASATINIB; 50 nM) | surviving fraction (DASATINIB; 100 nM) | surviving fraction (DASATINIB; 500 nM) | surviving fraction (DASATINIB; 1000 nM) | surviving fraction (ABIRATERONE; 0.5 nM) | surviving fraction (ABIRATERONE; 1 nM) | surviving fraction (ABIRATERONE; 5 nM) | surviving fraction (ABIRATERONE; 10 nM) | surviving fraction (ABIRATERONE; 50 nM) | surviving fraction (ABIRATERONE; 100 nM) | surviving fraction (ABIRATERONE; 500 nM) | surviving fraction (ABIRATERONE; 1000 nM)
1 | CHLA90 AUTONOMIC GANGLIA | 0.801 ± 0.031 | 0.804 ± 0.059 | 0.737 ± 0.054 | 0.712 ± 0.025 | 0.735 ± 0.11 | 0.656 ± 0.091 | 0.711 ± 0.044 | 0.728 ± 0.026 | 1.01 ± 0.064 | 1.07 ± 0.043 | 1.06 ± 0.023 | 1.05 ± 0.044 | 1.05 ± 0.052 | 0.993 ± 0.096 | 1.08 ± 0.017 | 1.09 ± 0.05
2 | HCC1954 BREAST | 0.362 ± 0.011 | 0.325 ± 0.035 | 0.282 ± 0.0039 | 0.351 ± 0.006 | 0.309 ± 0.022 | 0.173 ± 0.021 | 0.148 ± 0.0028 | 0.104 ± 0.019 | 0.838 ± 0.082 | 1.01 ± 0.13 | 1.05 ± 0.088 | 1.13 ± 0.12 | 1.09 ± 0.23 | 1.12 ± 0.041 | 1.08 ± 0.086 | 1.02 ± 0.014
3 | SUM149.B1*.S BREAST | 0.905 ± 0.034 | 0.879 ± 0.036 | 0.811 ± 0.024 | 0.75 ± 0.047 | 0.5 ± 0.018 | 0.358 ± 0.0082 | 0.332 ± 0.0043 | 0.353 ± 0.032 | 1.11 ± 0.055 | 1.11 ± 0.047 | 1.2 ± 0.05 | 1.12 ± 0.071 | 1.21 ± 0.062 | 1.21 ± 0.074 | 1.19 ± 0.028 | 1.2 ± 0.078
4 | T47D BREAST | 0.937 ± 0.032 | 0.903 ± 0.043 | 0.903 ± 0.057 | 0.937 ± 0.042 | 1 ± 0.035 | 0.975 ± 0.042 | 0.964 ± 0.048 | 0.982 ± 0.061 | 1.04 ± 0.048 | 1.08 ± 0.031 | 1.05 ± 0.018 | 1.08 ± 0.063 | 1.18 ± 0.068 | 1.14 ± 0.022 | 1.1 ± 0.069 | 1.13 ± 0.051
5 | SUM159 BREAST | 0.948 ± 0.026 | 0.981 ± 0.011 | 0.955 ± 0.015 | 0.921 ± 0.022 | 0.907 ± 0.011 | 0.778 ± 0.048 | 0.59 ± 0.035 | 0.606 ± 0.055 | 1.11 ± 0.053 | 0.994 ± 0.16 | 0.99 ± 0.17 | 0.952 ± 0.21 | 1.11 ± 0.05 | 0.963 ± 0.24 | 1.03 ± 0.15 | 0.961 ± 0.2
6 | CADOES1 SOFT TISSUE | 1.04 ± 0.07 | 1.01 ± 0.034 | 0.91 ± 0.042 | 0.939 ± 0.11 | 1.01 ± 0.079 | 0.973 ± 0.081 | 1.05 ± 0.099 | 1.14 ± 0.1 | 0.958 ± 0.12 | 1.03 ± 0.061 | 0.978 ± 0.11 | 0.943 ± 0.04 | 1 ± 0.025 | 1.11 ± 0.055 | 1.04 ± 0.14 | 0.955 ± 0.061
7 | SG32 HEADNECK | 0.606 ± 0.048 | 0.653 ± 0.14 | 0.564 ± 0.11 | 0.438 ± 0.06 | 0.395 ± 0.09 | 0.171 ± 0.037 | 0.155 ± 0.015 | 0.147 ± 0.022 | 1.18 ± 0.12 | 1.29 ± 0.2 | 1.13 ± 0.2 | 1.22 ± 0.11 | 1.15 ± 0.05 | 1.17 ± 0.12 | 1.13 ± 0.16 | 1.21 ± 0.19
8 | BT20 BREAST | 0.767 ± 0.056 | 0.729 ± 0.02 | 0.699 ± 0.026 | 0.739 ± 0.11 | 0.774 ± 0.13 | 0.798 ± 0.061 | 0.752 ± 0.034 | 0.705 ± 0.036 | 1.17 ± 0.082 | 1.04 ± 0.23 | 1.22 ± 0.11 | 1.21 ± 0.2 | 1.12 ± 0.23 | 1.14 ± 0.15 | 1.13 ± 0.16 | 1 ± 0.14
9 | OSHN BONE | 0.889 ± 0.016 | 0.9163 ± 0.0047 | 0.865 ± 0.035 | 0.83 ± 0.014 | 0.915 ± 0.012 | 0.891 ± 0.023 | 0.662 ± 0.13 | 0.46 ± 0.17 | 1.13 ± 0.021 | 1.102 ± 0.009 | 1.12 ± 0.022 | 1.09 ± 0.029 | 1.13 ± 0.016 | 1.13 ± 0.031 | 1.11 ± 0.017 | 1.09 ± 0.024
10 | C33A CERVIX | 0.869 ± 0.078 | 0.772 ± 0.044 | 0.521 ± 0.034 | 0.419 ± 0.008 | 0.219 ± 0.026 | 0.182 ± 0.0036 | 0.157 ± 0.0025 | 0.172 ± 0.0091 | 1.19 ± 0.19 | 1.13 ± 0.059 | 1.19 ± 0.063 | 1.03 ± 0.022 | 1.12 ± 0.08 | 1.17 ± 0.068 | 1.2 ± 0.027 | 1.06 ± 0.13
11 | SKBR3 BREAST | 0.718 ± 0.024 | 0.802 ± 0.1 | 0.722 ± 0.097 | 0.822 ± 0.063 | 1.01 ± 0.093 | 1.1 ± 0.086 | 1.13 ± 0.12 | 0.942 ± 0.022 | 0.995 ± 0.11 | 1.07 ± 0.073 | 1.2 ± 0.17 | 0.924 ± 0.1 | 1.11 ± 0.18 | 1.14 ± 0.068 | 1.08 ± 0.1 | 0.918 ± 0.18
12 | 22RV1 PROSTATE | 1.15 ± 0.32 | 0.983 ± 0.09 | 1.1 ± 0.3 | 0.935 ± 0.097 | 1.01 ± 0.15 | 0.929 ± 0.056 | 1.04 ± 0.085 | 1.09 ± 0.16 | 1.06 ± 0.047 | 1.09 ± 0.086 | 1.07 ± 0.062 | 1.09 ± 0.047 | 1.11 ± 0.029 | 1.09 ± 0.051 | 1.17 ± 0.067 | 1.08 ± 0.054
13 | LNCAP PROSTATE | 1.14 ± 0.05 | 1.1 ± 0.082 | 1.03 ± 0.075 | 0.941 ± 0.12 | 0.678 ± 0.032 | 0.504 ± 0.053 | 0.572 ± 0.012 | 0.589 ± 0.076 | 0.875 ± 0.08 | 0.996 ± 0.24 | 0.92 ± 0.026 | 0.869 ± 0.11 | 0.93 ± 0.1 | 0.976 ± 0.15 | 0.84 ± 0.12 | 0.791 ± 0.14
14 | CASKI CERVIX | 0.732 ± 0.045 | 0.777 ± 0.052 | 0.69 ± 0.024 | 0.474 ± 0.03 | 0.121 ± 0.0042 | 0.0747 ± 0.0047 | 0.0433 ± 0.0023 | 0.0293 ± 0.00058 | 0.924 ± 0.015 | 0.884 ± 0.044 | 1.04 ± 0.1 | 1.03 ± 0.018 | 1.08 ± 0.027 | 1.1 ± 0.014 | 1.09 ± 0.032 | 1.11 ± 0.05
15 | HU09 BONE | 0.863 ± 0.056 | 0.845 ± 0.025 | 0.805 ± 0.086 | 0.75 ± 0.056 | 0.392 ± 0.051 | 0.214 ± 0.019 | 0.129 ± 0.007 | 0.12 ± 0.018 | 1.02 ± 0.086 | 1.11 ± 0.048 | 1.17 ± 0.18 | 1.12 ± 0.14 | 1.21 ± 0.086 | 1.18 ± 0.13 | 1.03 ± 0.089 | 1.05 ± 0.12
16 | MDAMB157 BREAST | 0.954 ± 0.12 | 0.915 ± 0.021 | 0.775 ± 0.071 | 0.688 ± 0.074 | 0.438 ± 0.025 | 0.35 ± 0.031 | 0.238 ± 0.04 | 0.232 ± 0.038 | 0.85 ± 0.017 | 0.892 ± 0.1 | 0.912 ± 0.081 | 1.12 ± 0.1 | 1.01 ± 0.092 | 1.09 ± 0.14 | 1.01 ± 0.1 | 0.957 ± 0.11
17 | HCC78 LUNG | 0.662 ± 0.064 | 0.783 ± 0.025 | 0.849 ± 0.084 | 0.914 ± 0.068 | 0.569 ± 0.15 | 0.235 ± 0.019 | 0.175 ± 0.056 | 0.176 ± 0.045 | 0.94 ± 0.12 | 0.911 ± 0.058 | 1.09 ± 0.15 | 1.06 ± 0.23 | 1.12 ± 0.16 | 1.15 ± 0.25 | 0.936 ± 0.063 | 0.823 ± 0.24
18 | HCC1395 BREAST | 0.813 ± 0.065 | 0.961 ± 0.1 | 0.891 ± 0.068 | 0.902 ± 0.044 | 0.763 ± 0.093 | 0.704 ± 0.091 | 0.583 ± 0.067 | 0.591 ± 0.017 | 1.07 ± 0.11 | 1.07 ± 0.015 | 1.14 ± 0.059 | 1.13 ± 0.021 | 1.08 ± 0.12 | 1.11 ± 0.13 | 1.146 ± 0.0049 | 1.19 ± 0.047
19 | RDES SOFT TISSUE | 0.849 ± 0.23 | 0.762 ± 0.2 | 0.775 ± 0.067 | 0.767 ± 0.14 | 0.981 ± 0.09 | 0.934 ± 0.057 | 0.975 ± 0.059 | 0.9887 ± 0.0031 | 1.19 ± 0.14 | 1.18 ± 0.12 | 1.21 ± 0.15 | 1.13 ± 0.11 | 1.2 ± 0.25 | 1.22 ± 0.25 | 1.28 ± 0.23 | 1.36 ± 0.27
20 | MDAMB231 BREAST | 0.803 ± 0.011 | 0.794 ± 0.033 | 0.653 ± 0.022 | 0.571 ± 0.02 | 0.25 ± 0.0064 | 0.171 ± 0.0089 | 0.1411 ± 0.0013 | 0.153 ± 0.0031 | 0.991 ± 0.011 | 0.998 ± 0.048 | 1.02 ± 0.023 | 0.992 ± 0.031 | 1.02 ± 0.013 | 1.03 ± 0.024 | 1.02 ± 0.014 | 0.942 ± 0.027
